Results: PubChem BioAssay AID256 (DTP/NCI, 2004)
Where “and” joins values, the source holds several entries; their conditions need not be identical. Equal values may be shown once. Toxic doses and inconclusive results are not listed. The calls were made as follows: active = survival T/C of 150% or more; inactive = T/C below 125% in these data.

Test system: CD2F1 mice, L1210 leukemia ip, survival T/C
Test: NCI In Vivo Anticancer Drug Screen. Data for tumor model L1210 Leukemia (intraperitoneal) in CD2F1 (CDF1) mice
Settings: higher = longer survival
Method in brief: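 Read-out first: treated-group measurement over vehicle-control measurement, expressed as a ratio. Animals bore a transplanted tumor line and were dosed with compound or vehicle.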

[1] = endpoint: mean survival time, dose: 100.0 mg/kg/injection, schedule: Q01DX009 (ip), vehicle: saline with Tween-80
[2] = endpoint: mean survival time, dose: 100.0 mg/kg/injection, schedule: Q04DX003 (ip), vehicle: saline with Tween-80
[3] = endpoint: mean survival time, dose: 200.0 mg/kg/injection, schedule: Q01DX009 (ip), vehicle: saline with Tween-80
[4] = endpoint: mean survival time, dose: 200.0 mg/kg/injection, schedule: Q04DX003 (ip), vehicle: saline with Tween-80
[5] = endpoint: mean survival time, dose: 400.0 mg/kg/injection, schedule: Q01DX009 (ip), vehicle: saline with Tween-80
[6] = endpoint: mean survival time, dose: 400.0 mg/kg/injection, schedule: Q04DX003 (ip), vehicle: saline with Tween-80
[7] = endpoint: mean survival time, dose: 100.0 mg/kg/injection, schedule: Q01DX001 (ip), vehicle: saline with Tween-80
[8] = endpoint: mean survival time, dose: 200.0 mg/kg/injection, schedule: Q01DX001 (ip), vehicle: saline with Tween-80
[9] = endpoint: mean survival time, dose: 100.0 mg/kg/injection, schedule: Q04DX002 (ip), vehicle: saline with Tween-80
[10] = endpoint: mean survival time, dose: 200.0 mg/kg/injection, schedule: Q04DX002 (ip), vehicle: saline with Tween-80
[11] = endpoint: mean survival time, dose: 400.0 mg/kg/injection, schedule: Q04DX002 (ip), vehicle: saline with Tween-80

Measured: T/C

CCOC(=O)NC(S(=O)(=O)O)S(=O)(=O)O
inactive: endpoint: mean survival time, dose: 100.0 mg/kg/injection, schedule: Q01DX001 (ip), vehicle: saline 104 % of control | endpoint: mean survival time, dose: 200.0 mg/kg/injection, schedule: Q01DX001 (ip), vehicle: saline 104 % of control | endpoint: mean survival time, dose: 400.0 mg/kg/injection, schedule: Q01DX001 (ip), vehicle: saline 108 % of control

CC1(C)C2CC=C(CC3CC(=O)OC3=O)C1C2 (stereo not drawn)
inactive: endpoint: mean survival time, dose: 75.0 mg/kg/injection, schedule: Q01DX001 (ip), vehicle: other 97 % of control | endpoint: mean survival time, dose: 150.0 mg/kg/injection, schedule: Q01DX001 (ip), vehicle: other 102 % of control | endpoint: mean survival time, dose: 300.0 mg/kg/injection, schedule: Q01DX001 (ip), vehicle: other 108 % of control

CCC1(O)C(=O)OCc2c1cc1n(c2=O)Cc2cc3ccc(N(C)C)cc3nc2-1 (stereo not drawn)
inactive: endpoint: median survival time, dose: 10.0 mg/kg/injection, schedule: Q04DX002 (ip), vehicle: saline with Tween-80 103 % of control | endpoint: median survival time, dose: 20.0 mg/kg/injection, schedule: Q04DX002 (ip), vehicle: saline with Tween-80 106 % of control | endpoint: median survival time, dose: 40.0 mg/kg/injection, schedule: Q04DX002 (ip), vehicle: saline with Tween-80 106 % of control | endpoint: median survival time, dose: 80.0 mg/kg/injection, schedule: Q04DX002 (ip), vehicle: saline with Tween-80 112 % of control

N#CC(C#N)=C1CCNc2ccccc21
inactive: [1] 96 % of control | [2] 101 % of control | [3] 94 % of control | [4] 103 % of control | [5] 90 % of control | [6] 97 % of control

CCC/C(C)=N/Nc1ccc([N+](=O)[O-])cc1
inactive: [1] 94 % of control | [2] 95 % of control | [3] 100 % of control | [4] 97 % of control | [5] 94 % of control | [6] 93 % of control

O=S1(=O)CCC2CCCCC2C1 (stereo not drawn)
inactive: endpoint: mean survival time, dose: 12.5 mg/kg/injection, schedule: Q04DX003 (ip), vehicle: saline with Tween-80 103 % of control | endpoint: mean survival time, dose: 25.0 mg/kg/injection, schedule: Q04DX003 (ip), vehicle: saline with Tween-80 100 % of control

CCCCCCCCCCNCCC(=O)O
inactive: endpoint: mean survival time, dose: 37.5 mg/kg/injection, schedule: Q04DX003 (ip), vehicle: saline 97 % of control | endpoint: mean survival time, dose: 75.0 mg/kg/injection, schedule: Q04DX003 (ip), vehicle: saline 94 % of control | endpoint: mean survival time, dose: 150.0 mg/kg/injection, schedule: Q04DX003 (ip), vehicle: saline 97 % of control

Cc1ccc(N=Nc2sc(N)nc2-c2cccc([N+](=O)[O-])c2)cc1
inactive: [7] 89 % of control | [8] 96 % of control

CN(C)C(=S)Oc1ccc2ccc3ccccc3c2c1
inactive: [9] 96 % of control | [10] 89 % of control | [11] 104 % of control

Cc1ccc(S(=O)(=O)Cl)cc1
inactive: endpoint: mean survival time, dose: 100.0 mg/kg/injection, schedule: Q04DX002 (ip), vehicle: saline 91 % of control | endpoint: mean survival time, dose: 200.0 mg/kg/injection, schedule: Q04DX002 (ip), vehicle: saline 100 % of control

CN(C)N=Nc1c(Cl)cccc1Cl
inactive: endpoint: mean survival time, dose: 9.38 mg/kg/injection, schedule: Q01DX009 (ip), vehicle: Klucel (hydroxypropylcellulose) (HPC) 101 % of control | endpoint: mean survival time, dose: 18.75 mg/kg/injection, schedule: Q01DX009 (ip), vehicle: Klucel (hydroxypropylcellulose) (HPC) 95 % of control and 103 % of control | endpoint: mean survival time, dose: 37.5 mg/kg/injection, schedule: Q01DX009 (ip), vehicle: Klucel (hydroxypropylcellulose) (HPC) 97 % of control and 110 % of control | endpoint: mean survival time, dose: 300.0 mg/kg/injection, schedule: Q01DX009 (ip), vehicle: Klucel (hydroxypropylcellulose) (HPC) 89 % of control

CN(C)C1=NC1(C)C.CN(C)C1=NC1(C)C.[Cl][Pd][Cl]
inactive: endpoint: mean survival time, dose: 3.13 mg/kg/injection, schedule: Q04DX003 (ip), vehicle: distilled water + Tween-80 96 % of control | endpoint: mean survival time, dose: 6.25 mg/kg/injection, schedule: Q04DX003 (ip), vehicle: distilled water + Tween-80 101 % of control | endpoint: mean survival time, dose: 12.5 mg/kg/injection, schedule: Q04DX003 (ip), vehicle: distilled water + Tween-80 96 % of control | endpoint: mean survival time, dose: 25.0 mg/kg/injection, schedule: Q04DX003 (ip), vehicle: distilled water + Tween-80 105 % of control | endpoint: mean survival time, dose: 50.0 mg/kg/injection, schedule: Q04DX003 (ip), vehicle: distilled water + Tween-80 101 % of control | endpoint: mean survival time, dose: 100.0 mg/kg/injection, schedule: Q04DX003 (ip), vehicle: distilled water + Tween-80 114 % of control

C[N+]12CC3C(O)CC1CCC32 (stereo not drawn)
inactive: endpoint: mean survival time, dose: 12.0 mg/kg/injection, schedule: Q01DX001 (ip), vehicle: saline 97 % of control | endpoint: mean survival time, dose: 12.0 mg/kg/injection, schedule: Q01DX009 (ip), vehicle: saline 96 % of control | endpoint: mean survival time, dose: 25.0 mg/kg/injection, schedule: Q01DX001 (ip), vehicle: saline 96 % of control | endpoint: mean survival time, dose: 25.0 mg/kg/injection, schedule: Q01DX009 (ip), vehicle: saline 98 % of control | endpoint: mean survival time, dose: 50.0 mg/kg/injection, schedule: Q01DX001 (ip), vehicle: saline 97 % of control | endpoint: mean survival time, dose: 50.0 mg/kg/injection, schedule: Q01DX009 (ip), vehicle: saline 93 % of control

O=C(O)C[Se](=O)O
inactive: endpoint: mean survival time, dose: 12.5 mg/kg/injection, schedule: Q01DX001 (ip), vehicle: saline with Tween-80 91 % of control | endpoint: mean survival time, dose: 25.0 mg/kg/injection, schedule: Q01DX001 (ip), vehicle: saline with Tween-80 91 % of control

CC1(C)CCCC2(C)C(OCCO)=CC(=O)C=C12 (stereo not drawn)
inactive: endpoint: mean survival time, dose: 100.0 mg/kg/injection, schedule: Q04DX003 (ip), vehicle: saline sonified 96 % of control | endpoint: mean survival time, dose: 200.0 mg/kg/injection, schedule: Q04DX003 (ip), vehicle: saline sonified 98 % of control | endpoint: mean survival time, dose: 400.0 mg/kg/injection, schedule: Q04DX003 (ip), vehicle: saline sonified 96 % of control

O=S(=O)(F)c1ccc(-c2cc(Cl)c3cc(F)ccc3n2)cc1
inactive: [7] 98 % of control | [8] 98 % of control | endpoint: mean survival time, dose: 400.0 mg/kg/injection, schedule: Q01DX001 (ip), vehicle: saline with Tween-80 94 % of control

CN(C)C(=O)c1ccccc1C(=O)c1ccccc1
inactive: [9] 94 % of control | [10] 87 % of control | [11] 91 % of control

COc1cc(/C=C/c2nc3ccccc3nc2/C=C/c2cc(OC)c(OC)c(OC)c2)cc(OC)c1OC
inactive: [3] 94 % of control | [5] 100 % of control | [6] 93 % of control

O=S(=O)(c1ccc(Cl)cc1)N(Cl)Cl
inactive: [7] 103 % of control | [8] 101 % of control

O=C(NCCCl)C(=O)NCCCl
inactive: [9] 100 % of control | [10] 100 % of control | [11] 100 % of control

N#C/C(=C/c1ccccc1Cl)C(N)=O
inactive: endpoint: mean survival time, dose: 100.0 mg/kg/injection, schedule: Q01DX001 (ip), vehicle: saline sonified 103 % of control | endpoint: mean survival time, dose: 200.0 mg/kg/injection, schedule: Q01DX001 (ip), vehicle: saline sonified 100 % of control | endpoint: mean survival time, dose: 400.0 mg/kg/injection, schedule: Q01DX001 (ip), vehicle: saline sonified 104 % of control

CN1CCC(C(O)c2ccccc2)CC1 (stereo not drawn)
inactive: [2] 102 % of control | [4] 100 % of control | [6] 88 % of control

O=C(O)CCCCCc1ccccc1
inactive: [1] 96 % of control | [2] 102 % of control | [3] 95 % of control | [4] 91 % of control | [5] 101 % of control | [6] 101 % of control

COC1=CC2c3ccccc3C1C1C(OC)=CC2c2ccccc21
inactive: endpoint: mean survival time, dose: 25.0 mg/kg/injection, schedule: Q01DX009 (ip), vehicle: saline with Tween-80 96 % of control | endpoint: mean survival time, dose: 50.0 mg/kg/injection, schedule: Q01DX009 (ip), vehicle: saline with Tween-80 98 % of control | [1] 96 % of control | [2] 88 % of control

CC(C)c1ccc2cc(C(C)C)ccc2c1
inactive: [2] 86 % of control | [4] 92 % of control | [6] 92 % of control
